The pIC50 is −log10 of the IC50, conventionally taken in molar units.

pIC50: −log10 of the molar value. Active and inactive are the calls of the source. The rule behind the calls is not given here.

Drawing on ChEMBL document CHEMBL4184140, “Expanding the tetrahydroquinoline pharmacophore” (Bioorg Med Chem Lett, 2017), this text covers Activity and IC50 for 15 molecules.

Test [1] has as its system IMR-32. Kind of test: Neurotrophic activity in human IMR32 cells assessed as length of neurite outgrown after 96 hrs by bright field microscopic analysis. The test is classed as functional, cell-based.
A further test has as its system MCF7. The experiment in a line: Antiproliferative activity against human MCF7 cells. The test is classed as functional, cell-based.
The next test relates to DU-145. The experiment in a line: Antiproliferative activity against human DU145 cells. Type of test: functional, cell-based.
The subject of another test is A549. The experiment in a line: Antiproliferative activity against human A549 cells. Type of test: functional, cell-based.
The next test concerns HepG2. Kind of test: Antiproliferative activity against human HepG2 cells. The test is classed as functional, cell-based.
Test [2] deals with IMR-32. The experiment in a line: Cytotoxicity against human IMR32 cells after 48 hrs by SRB assay. Type of test: cell-based. As to conditions: IMR-32, 48 h. For orientation: In SRB staining, fixed cells bind dye roughly in proportion to their protein.
For test [3], the system named is IMR-32. The experiment in a line: Neurotrophic activity in human IMR32 cells assessed as increase in BDNF mRNA level at 10 uM by RT-PCR analysis. Type of test: functional, cell-based.
Test [4] concerns IMR-32. Kind of test: Neurotrophic activity in human IMR32 cells assessed as increase in NGF mRNA level at 10 uM by RT-PCR analysis. The test is classed as functional, cell-based.
The subject of test [5] is IMR-32. Kind of test: Neurotrophic activity in human IMR32 cells assessed as increase in BDNF protein level at 10 uM by Western blot method. Type of test: functional, cell-based.
Test [6] concerns IMR-32. The experiment in a line: Neurotrophic activity in human IMR32 cells assessed as increase in NGF protein level at 10 uM by Western blot method. Type of test: functional, cell-based.
Test [7] concerns IMR-32. Kind of test: Neurotrophic activity in human IMR32 cells assessed as induction of differentiation at 10 uM after 96 hrs by bright filed microscopic method. The test is classed as functional, cell-based.
Test [8] deals with IMR-32. Kind of test: Neurotrophic activity in human IMR32 cells assessed as induction of differentiation at 50 uM after 96 hrs by bright filed microscopic method. Type of test: functional, cell-based.
Test [9] concerns IMR-32. Kind of test: Neurotrophic activity in human IMR32 cells assessed as induction of differentiation at 1 uM after 96 hrs by bright filed microscopic method. The test is classed as functional, cell-based.
Test [10] has as its system IMR-32. The experiment in a line: Neurotrophic activity in human IMR32 cells assessed as appearance of neurites at 1 to 10 uM after 96 hrs by bright field microscopic analysis. The test is classed as functional, cell-based.

Take `CC(=O)N1c2ccccc2[C@H]2[C@@H](O)[C@H](N=[N+]=[N-])C[C@H]2[C@H]1c1ccccc1`: the Activity entry in the test on IMR-32 [1] was “Dose-dependent effect”. In addition, the result in the test with MCF7, in the test with DU-145, in the test with A549 and in the test on HepG2 was inactive. Moreover, in the test on IMR-32 [2], the pIC50 was less than 4.00. Also, the outcome in the test on IMR-32 [3], in the test with IMR-32 [4], in the test on IMR-32 [5], in the test with IMR-32 [6] and in the test with IMR-32 [7] was Active.

For the molecule `COC(=O)C[C@@H]1[C@H](C(=O)OC)c2ccccc2N(C(C)=O)[C@@H]1c1ccccc1`, the Activity entry in the test on IMR-32 [1] was “Dose-dependent effect”. The outcome in the test with MCF7, with DU-145, in the test with A549 and with HepG2 was inactive. Besides, the pIC50 in the test with IMR-32 [2] is 4.09. For the same molecule, the result with IMR-32 [3], in the test on IMR-32 [4], in the test with IMR-32 [5], with IMR-32 [6], in the test with IMR-32 [7] and in the test on IMR-32 [8] was Active.

For the molecule `CC(=O)N1c2ccccc2[C@@H]2[C@@H](C[C@@H]3O[C@H]23)[C@H]1c1ccccc1`, the Activity entry in the test on IMR-32 [1] is “Dose-dependent effect”. Besides, the result in the test on MCF7, in the test on DU-145, in the test on A549 and with HepG2 was inactive. In the test with IMR-32 [2], this molecule showed a pIC50 of less than 4.00. Moreover, the outcome in the test on IMR-32 [3], with IMR-32 [4], in the test on IMR-32 [5], in the test with IMR-32 [6] and in the test with IMR-32 [7] was Active.

Turning to `C1=C[C@@H]2c3ccccc3N[C@H](c3ccccc3)[C@@H]2C1`, in the test on IMR-32 [1], the Activity entry is “Dose-dependent effect”. The outcome in the test on MCF7, in the test on DU-145, in the test with A549 and in the test with HepG2 was inactive. The pIC50 in the test with IMR-32 [2] was less than 4.00. The outcome in the test with IMR-32 [3], in the test on IMR-32 [4], in the test on IMR-32 [5], in the test with IMR-32 [6], in the test with IMR-32 [9] and with IMR-32 [7] was Active.

On to `CC(=O)N1c2cc([N+](=O)[O-])ccc2[C@@H]2[C@@H](C[C@@H]3O[C@H]23)[C@H]1c1ccccc1`, for which the result in the test with MCF7, in the test with DU-145, in the test with A549 and in the test on HepG2 was inactive. This molecule also had a pIC50 with IMR-32 [2] of 4.25. For the same molecule, the result in the test with IMR-32 [7] was Active.

`O[C@@H]1[C@@H]2c3ccccc3N[C@H](c3cccc(Br)c3)[C@@H]2C[C@@H]1O`: the Activity entry with IMR-32 [1] is “Dose-dependent effect”. The result with MCF7, in the test on DU-145, with A549 and in the test on HepG2 was inactive. In the test with IMR-32 [2], the pIC50 was less than 4.00. Moreover, the outcome in the test with IMR-32 [10], in the test with IMR-32 [3], in the test on IMR-32 [4], in the test with IMR-32 [5], in the test with IMR-32 [6] and in the test on IMR-32 [7] was Active.

Take `CC(=O)N1c2ccccc2[C@@H]2[C@@H](C[C@@H]3O[C@H]23)[C@H]1c1ccc(Cl)cc1`: the outcome in the test on MCF7, with DU-145, with A549, with HepG2 and with IMR-32 [10] was inactive. The pIC50 with IMR-32 [2] is less than 4.00.

Consider `Fc1ccc2c(c1)N[C@H](c1ccccc1)[C@@H]1CC=C[C@H]21`, for which the outcome with MCF7, with DU-145, in the test on A549, with HepG2 and in the test with IMR-32 [10] was inactive. The molecule also gave a pIC50 in the test on IMR-32 [2] of less than 4.00.

As for `C=CCO[C@@H]1[C@@H]2c3ccccc3N(C(C)=O)[C@H](c3ccc(Cl)cc3)[C@@H]2C[C@H]1N=[N+]=[N-]`, the outcome in the test with MCF7, in the test with DU-145, in the test with A549, in the test on HepG2 and in the test with IMR-32 [10] was inactive. The same molecule had a pIC50 in the test with IMR-32 [2] of 4.18.

Turning to `CC(=O)N1c2cc([N+](=O)[O-])ccc2[C@H]2C=CC[C@H]2[C@H]1c1ccccc1`, the Activity entry in the test with IMR-32 [1] is “Dose-dependent effect”. The result with MCF7, in the test with DU-145, with A549 and in the test on HepG2 was inactive. Besides, the pIC50 with IMR-32 [2] was less than 4.00. The result with IMR-32 [10], with IMR-32 [3], in the test with IMR-32 [4], with IMR-32 [5] and with IMR-32 [6] was Active.

On to `CC(=O)N1c2ccc(Br)cc2[C@H]2C=CC[C@H]2[C@H]1c1ccccc1`, for which the outcome in the test on MCF7, in the test with DU-145, with A549, in the test on HepG2 and in the test on IMR-32 [10] was inactive. The molecule further showed a pIC50 with IMR-32 [2] of 4.05.

`O[C@@H]1[C@@H]2c3cc(Br)ccc3N[C@H](c3ccccc3)[C@@H]2C[C@@H]1O`: the result in the test on MCF7, in the test with DU-145, in the test on A549, in the test with HepG2 and in the test on IMR-32 [10] was inactive. In the test on IMR-32 [2], this molecule showed a negative logarithm of the IC50 (pIC50) of less than 4.00.

`CC(=O)N1c2cc([N+](=O)[O-])ccc2[C@H]2[C@@H](O)[C@H](N=[N+]=[N-])C[C@H]2[C@H]1c1ccccc1`: the result in the test with MCF7, in the test with DU-145, with A549, in the test with HepG2 and with IMR-32 [10] was inactive. Besides, in the test with IMR-32 [2], the pIC50 was less than 4.00.

In the case of `CC(=O)N1c2ccccc2[C@H]2[C@@H](O)[C@H](N=[N+]=[N-])C[C@H]2[C@H]1c1cccc(Br)c1`, the outcome in the test with MCF7, in the test with DU-145, with A549, with HepG2 and in the test on IMR-32 [10] was inactive. The molecule also had a negative-log IC50 (pIC50) in the test with IMR-32 [2] of less than 4.00.

Regarding `CC(=O)N1c2ccccc2[C@H]2[C@@H](O)[C@@H](O)C[C@H]2[C@H]1c1ccccc1`, the result in the test with MCF7, with DU-145, in the test with A549, in the test with HepG2 and in the test with IMR-32 [10] was inactive. Also, the negative logarithm of the IC50 (pIC50) in the test with IMR-32 [2] was less than 4.00.
